Laboratory results from patent US20080220065A1, “Compositions for treating foot odor and methods of use thereof” (priority 2007, published 2008).

Experiments:
[1] = tested on: ubiquitous microbial cultures collected from common household and mammalian sources; assay: filter disc incubation with streak-inoculated microbial cultures; type: cell-based; details: filter discs impregnated by aqueous saturation, incubated with the cultures
Experimental: Initial comparative studies were conducted in an effort to validate the antimicrobial activities of cupric compounds, wherein ubiquitous microbial cultures were collected from common household and mammalian sources and isolated in identifiable colonies by streak inoculation.

foot odor [2] = assay: efficacy duration study, twenty-six persons, right vs left footwear, olfactory evaluation; type: in vivo, human; details: for olfactory evaluation of footwear and feet: three days following administration
Experimental: Thereafter, to test the efficacy duration of the preferred mixture and concentration of the present invention, a study was conducted of twenty-six persons, male and female, ranging in ages from 7-71 years, all presenting with foul and distressing foot odor. These twenty-six persons had all of their “right-side” footwear treated with 1-1.25 g of cupric carbonate and their “left-side” footwear with 1-1.25 g sodium bicarbonate. Three days following administration, each shoe worn and both feet of each participant were evaluated via olfactory sense. Evaluation results were the same, without exception, for all participants.

foot odor [3] = assay: initial empirical use studies in footwear
Excerpt: Initial empirical use studies involved finely divided elemental copper powder.

foot odor [4] = assay: dosing specification study, organoleptic odor evaluation, six volunteers; type: in vivo, human; details: for organoleptic odor evaluation: after three, 10 and 30 days
Experimental: Dosing specification studies were conducted in order to define a preferred minimum quantity for preferred use; although mindful of the differences in performance, more or less than the preferred minimum quantity could be utilized in alternate compositions. Initial test dosing was approximately 3.5 to 4.0 grams dispersed within each shoe, with excess bumped out through the footwear opening.
In the study, six volunteer participants with confirmed and self-recognized foot odor participated in trials to establish preferred upper and lower specification ranges. […] The left shoes were treated in a variable fashion, from an initial 3.5 gram dose to a final dose of 0.5 grams, via 0.5 gram increments. An organoleptic evaluation was performed by each test subject, and also be the inventor, after three days, 10 days, and 30 days of treatment for each dose.

With `CC(=O)[O-].CC(=O)[O-].[Cu+2]` [acetate solution, cupric acetate] the antimicrobial properties [1] was “confirming the existence of antimicrobial properties”.
For `O=C([O-])O.[Na+]` [sodium bicarbonate, reference compound], the “olfactory evaluation of footwear and feet” value (foot odor [2]; 1-1.25 g per shoe) was “no obvious change in degree of unpleasant odor”.
cupric carbonate, CuCO3.Cu(OH)2 was tested, and the “olfactory evaluation of footwear and feet” value (foot odor [2]; 1-1.25 g per shoe) was “no detectable hint of unpleasantness”, the duration of effectiveness (foot odor [2]; 1-1.25 g per shoe, in many cases twelve months or more) was “at least six” and the effectiveness (foot odor [2]; for at least six months) was roughly 100%. For the same compound, the antimicrobial properties [1] was “confirming the existence of antimicrobial properties”, the contact dermatitis (foot odor [3]; in vivo) was “contact dermatitis was completely eliminated” and the “efficacy against foot odor in earlier testing” value (foot odor [4]; 4.0 gram dosing, positive control, right shoe) was “shown the efficacy”. For the same compound, the organoleptic odor evaluation (foot odor [4]; dosed at or above 1.5 grams per shoe) was “no detectable trace of odor beyond that of damp footwear” and the organoleptic odor evaluation (foot odor [4]; dosed at or below 1.0 gram per shoe) was “some malodorous relief, but for a more limited period of time”.
With cupric chloride the contact dermatitis (foot odor [3]; use in footwear) was “varying degrees of contact dermatitis”.
